# Legend:
# [1] = test system: TK-10; assay: Antiproliferative activity against human TK10 cells; format: functional
# [2] = test system: HOP-92; assay: Antiproliferative activity against human HOP92 cells; format: functional
# [3] = test system: T98G; assay: Antiproliferative activity against human T98G cells; format: functional
# [4] = test system: KM12; assay: Antiproliferative activity against human KM12 cells; format: functional
# [5] = test system: SW-620; assay: Antiproliferative activity against human SW620 cells; format: functional
# [6] = test system: SF-268; assay: Antiproliferative activity against human SF268 cells; format: functional
# [7] = test system: MCF7; assay: Antiproliferative activity against human MCF7 cells at 10 uM relative to control; format: functional, cell-based
# [8] = test system: UACC-62; assay: Antiproliferative activity against human UACC62 cells; format: functional
# [9] = test system: RXF 393; assay: Antiproliferative activity against human RXF393 cells; format: functional
# [10] = test system: OVCAR-5; assay: Antiproliferative activity against human OVCAR5 cells; format: functional
# [11] = test system: IGROV-1; assay: Antiproliferative activity against human IGROV1 cells; format: functional
# [12] = test system: A549; assay: Antiproliferative activity against human A549 cells; format: functional
# [13] = test system: OVCAR-8; assay: Antiproliferative activity against human OVCAR8 cells; format: functional
# [14] = test system: HEC-1-A; assay: Antiproliferative activity against human Hec1A cells; format: functional
# [15] = test system: NCI-H322M; assay: Antiproliferative activity against human NCI-H322M cells; format: functional
# [16] = test system: HCT-116; assay: Antiproliferative activity against human HCT116 cells; format: functional
# [17] = test system: OVCAR-3; assay: Antiproliferative activity against human OVCAR3 cells; format: functional
# [18] = test system: CAKI-1; assay: Antiproliferative activity against human Caki1 cells; format: functional
# [19] = test system: HepG2; assay: Antiproliferative activity against human HepG2 cells; format: functional
# [20] = test system: HL-60(TB); assay: Antiproliferative activity against human HL-60(TB) cells; format: functional
# [21] = test system: AN3-CA; assay: Antiproliferative activity against human AN3CA cells; format: functional
# [22] = test system: RL95-2; assay: Antiproliferative activity against human RL95-2 cells; format: functional
# [23] = test system: SK-OV-3; assay: Antiproliferative activity against human SKOV3 cells; format: functional
# [24] = test system: COLO 205; assay: Antiproliferative activity against human COLO205 cells; format: functional
# [25] = test system: U-87 MG; assay: Antiproliferative activity against human U87MG cells; format: functional, U-87MG ATCC
# [26] = test system: HOP-62; assay: Antiproliferative activity against human HOP62cells; format: functional
# [27] = test system: SK-UT-1; assay: Antiproliferative activity against human SK-UT-1 cells; format: functional
# [28] = test system: MDA-MB-231; assay: Antiproliferative activity against human MDA-MB-231/ATCC cells; format: functional
# [29] = test system: SK-MEL-2; assay: Antiproliferative activity against human SK-MEL-2 cells; format: functional
# [30] = test system: SF-539; assay: Antiproliferative activity against human SF539 cells; format: functional
# [31] = test system: Malme-3M; assay: Antiproliferative activity against human MALME-3M cells; format: functional
# [32] = test system: MDCK-II; assay: Antimigratory activity against MDCK2 cells assessed as inhibition of HGF-induced cell scattering at 1 uM pretreated for 18 hrs followed by HGF addition measured after 20 to 24 hrs by crystal violet staining-based assay relative to control; format: functional; conditions: Canis lupus familiaris
# [33] = test system: HCC 2998; assay: Antiproliferative activity against human HCC2998 cells; format: functional
# [34] = test system: A498; assay: Antiproliferative activity against human A498 cells; format: functional
# [35] = test system: MCF7; assay: Antiproliferative activity against human MCF7 cells; format: functional
# [36] = test system: MDA-MB-468; assay: Antiproliferative activity against human MDA-MB-468 cells; format: functional
# [37] = test system: MFE-280; assay: Antiproliferative activity against human MFE280 cells; format: functional
# [38] = test system: MDA-MB-435; assay: Antiproliferative activity against human MDA-MB-435 cells; format: functional
# [39] = test system: CWR22R; assay: Antiproliferative activity against human 22Rv1 cells; format: functional
# [40] = test system: VCaP; assay: Antiproliferative activity against human VCaP cells; format: functional
# [41] = test system: NCI-H226; assay: Antiproliferative activity against human NCI-H226 cells; format: functional
# [42] = test system: OVCAR-4; assay: Antiproliferative activity against human OVCAR4 cells; format: functional
# [43] = test system: NCI/ADR-RES; assay: Antiproliferative activity against human NCI/ADR-RES cells; format: functional
# [44] = test system: A549; assay: Antiproliferative activity against human A549/ATCC cells; format: functional
# [45] = test system: RPMI-8226; assay: Antiproliferative activity against human RPMI8226 cells; format: functional
# [46] = test system: PANC-1; assay: Antiproliferative activity against human PANC1 cells; format: functional
# [47] = test system: MIA PaCa-2; assay: Antiproliferative activity against human MIAPaCa2 cells; format: functional
# [48] = test system: NCI-H522; assay: Antiproliferative activity against human NCI-H522 cells; format: functional
# [49] = test system: A2780; assay: Antiproliferative activity against human A2780 cells; format: functional, cell-based
# [50] = test system: UO-31; assay: Antiproliferative activity against human UO31 cells; format: functional
# [51] = test system: U-251; assay: Antiproliferative activity against human U251 cells; format: functional
# [52] = test system: NCI-H23; assay: Antiproliferative activity against human NCI-H23 cells; format: functional
# [53] = Antiproliferative activity against human NCI-H660 cells; format: functional
# [54] = test system: Hs-578T; assay: Antiproliferative activity against human Hs 578T cells; format: functional
# [55] = test system: ACHN; assay: Antiproliferative activity against human ACHN cells; format: functional
# [56] = test system: SNB-19; assay: Antiproliferative activity against human SNB19 cells; format: functional
# [57] = test system: MOLT-4; assay: Antiproliferative activity against human MOLT4 cells; format: functional
# [58] = test system: SW480; assay: Antiproliferative activity against human SW480 cells; format: functional
# [59] = test system: NCI-H460; assay: Antiproliferative activity against human NCI-H460 cells; format: functional
# [60] = test system: SR; assay: Antiproliferative activity against human SR cells; format: functional
# [61] = test system: BT-20; assay: Antiproliferative activity against human BT20 cells; format: functional
# [62] = test system: HT-29; assay: Antiproliferative activity against human HT-29 cells; format: functional
# [63] = test system: LNCaP; assay: Antiproliferative activity against human LNCAP cells; format: functional
# [64] = test system: HCT-15; assay: Antiproliferative activity against human HCT15 cells; format: functional
# [65] = test system: 786-0; assay: Antiproliferative activity against human 786-0 cells; format: functional
# [66] = Antiproliferative activity against human HER218 cells; format: functional
# [67] = test system: DU-145; assay: Antiproliferative activity against human DU145 cells; format: functional
# [68] = test system: SK-MEL-5; assay: Antiproliferative activity against human SK-MEL-5 cells; format: functional
# [69] = test system: NCI-H1975; assay: Antiproliferative activity against human NCI-H1975 cells; format: functional
# [70] = test system: M14; assay: Antiproliferative activity against human M14 cells; format: functional
# [71] = test system: SN12C; assay: Antiproliferative activity against human SN12C cells; format: functional
# [72] = test system: HPAC; assay: Antiproliferative activity against HPAC; format: functional; conditions: Homo sapiens
# [73] = test system: LOX IMVI; assay: Antiproliferative activity against human LOXIMVI cells; format: functional
# [74] = test system: MFE-296; assay: Antiproliferative activity against human MFE296 cells; format: functional
# [75] = test system: PC-3; assay: Antiproliferative activity against human PC3 cells; format: functional
# [76] = test system: CCRF-CEM; assay: Antiproliferative activity against human CCRF-CEM cells; format: functional
# [77] = test system: K562; assay: Antiproliferative activity against human K562 cells; format: functional
# [78] = test system: T47D; assay: Antiproliferative activity against human T47D cells; format: functional
# [79] = test system: SF-295; assay: Antiproliferative activity against human SF295 cells; format: functional
structure (smiles),measurement,setting,value
O=C(Nc1ccc(-c2ccccc2)cn1)c1cncnc1,GI50,[1],317 nM
same,GI50,[2],96 nM
same,GI50,[3],153 nM
same,GI50,[4],39 nM
same,GI50,[5],43 nM
same,GI50,[6],1020 nM
same,EC50,[7],74 nM
same,GI50,[8],69 nM
same,GI50,[9],124 nM
same,GI50,[10],605 nM
same,GI50,[11],869 nM
same,GI50,[12],204 nM
same,GI50,[13],240 nM
same,GI50,[14],178 nM
same,GI50,[15],512 nM
same,GI50,[16],40 nM
same,GI50,[17],47 nM
same,GI50,[18],91 nM
same,GI50,[19],94 nM
same,GI50,[20],53 nM
same,GI50,[21],53 nM
same,GI50,[22],86 nM
same,GI50,[23],315 nM
same,GI50,[24],47 nM
same,GI50,[25],260 nM
same,GI50,[26],> 10000 nM
same,GI50,[27],55 nM
same,GI50,[28],256 nM
same,GI50,[29],53 nM
same,GI50,[30],110 nM
same,GI50,[31],77 nM
same,inhibition at 1 µM,[32],238%
same,GI50,[33],1010 nM
same,GI50,[34],48 nM
same,GI50,[35],37 nM
same,GI50,[36],29 nM
same,GI50,[37],> 10000 nM
same,GI50,[38],22 nM
same,GI50,[39],150 nM
same,GI50,[40],246 nM
same,GI50,[41],613 nM
same,GI50,[42],> 10000 nM
same,GI50,[43],40 nM
same,GI50,[44],61 nM
same,GI50,[45],91 nM
same,GI50,[46],212 nM
same,GI50,[47],194 nM
same,GI50,[48],34 nM
same,EC50,[49],74 nM
same,GI50,[49],40 nM
same,GI50,[50],2110 nM
same,GI50,[51],113 nM
same,GI50,[52],660 nM
same,GI50,[53],135 nM
same,GI50,[54],160 nM
same,GI50,[55],271 nM
same,GI50,[56],370 nM
same,GI50,[57],297 nM
same,GI50,[58],46 nM
same,GI50,[59],41 nM
same,GI50,[60],42 nM
same,GI50,[61],342 nM
same,GI50,[62],38 nM
same,GI50,[63],361 nM
same,GI50,[64],45 nM
same,GI50,[65],591 nM
same,GI50,[66],72 nM
same,GI50,[67],305 nM
same,GI50,[68],43 nM
same,GI50,[69],271 nM
same,GI50,[70],44 nM
same,GI50,[71],155 nM
same,GI50,[72],154 nM
same,GI50,[73],121 nM
same,GI50,[74],26 nM
same,GI50,[75],118 nM
same,GI50,[76],199 nM
same,GI50,[77],46 nM
same,GI50,[78],> 10000 nM
same,GI50,[79],86 nM

# — ChEMBL document CHEMBL4043145, “Pyridine-pyrimidine amides that prevent HGF-induced epithelial scattering by two distinct mechanisms” (Bioorg Med Chem Lett, 2017)
